Assay results reported in ChEMBL document CHEMBL1145723, “Metabolic cleavage of frangufoline in rodents: in vitro and in vivo study” (J Nat Prod, 1997).

How the values were obtained:
Serum [1] = experiment: Metabolic stability in Sprague-Dawley rat serum assessed as formation of (S)-(N,N-dimethylphenylalanyl)-(2S,3S)-3[(p-formylphenoxyl)leucyl]-(S)-leucine) after 30 mins by HPLC; type: ADME, cell-free; conditions: 0.5 h
[2] = Metabolic stability in Sprague-Dawley rat gastric juice assessed as formation of (S)-(N,N-dimethylphenylalanyl)-(2S,3S)-3[(p-formylphenoxyl)leucyl]-(S)-leucine) after 30 mins by HPLC; type: ADME, tissue-based; conditions: 0.5 h
[3] = Metabolic stability in Sprague-Dawley rat intestinal fluid assessed as formation of (S)-(N,N-dimethylphenylalanyl)-(2S,3S)-3[(p-formylphenoxyl)leucyl]-(S)-leucine) after 30 mins by HPLC; type: ADME; conditions: simulated gi fluid, 0.5 h
Serum [4] = experiment: Metabolic stability in Sprague-Dawley rat serum assessed as formation of (S)-(N,N-dimethylphenylalanyl)-(2S,3S)-3[(p-formylphenoxyl)leucyl]-(S)-leucine) after 5 mins by HPLC; type: ADME, cell-free
Serum [5] = experiment: Metabolic stability in mouse serum assessed as formation of (S)-(N,N-dimethylphenylalanyl)-(2S,3S)-3[(p-formylphenoxyl)leucyl]-(S)-leucine) after 1 hr by HPLC; type: ADME, cell-free
Serum [6] = experiment: Metabolic stability in human serum assessed as formation of (S)-(N,N-dimethylphenylalanyl)-(2S,3S)-3[(p-formylphenoxyl)leucyl]-(S)-leucine) after 1 hr by HPLC; type: ADME, cell-free
Serum [7] = experiment: Metabolic stability in bovine serum assessed as formation of (S)-(N,N-dimethylphenylalanyl)-(2S,3S)-3[(p-formylphenoxyl)leucyl]-(S)-leucine) after 1 hr by HPLC; type: ADME, cell-free, Bos taurus; conditions: cattle
Serum [8] = experiment: Metabolic stability in Sprague-Dawley rat serum assessed as formation of (S)-(N,N-dimethylphenylalanyl)-(2S,3S)-3[(p-formylphenoxyl)leucyl]-(S)-leucine) at 50 mg/kg, po after 30 mins by HPLC; type: ADME, organism-based; parameters: dose 50 mg/kg, route oral; conditions: in vivo, 0.5 h
Serum [9] = experiment: Metabolic stability in Sprague-Dawley rat serum assessed as formation of (S)-(N,N-dimethylphenylalanyl)-(2S,3S)-3[(p-formylphenoxyl)leucyl]-(S)-leucine) at 25 mg/kg, po after 10 mins by HPLC; type: ADME, organism-based; parameters: dose 25 mg/kg, route oral; conditions: in vivo
Serum [10] = experiment: Metabolic stability in Sprague-Dawley rat serum assessed as initial rate of compound cleavage at 0.10 mM after 10 mins by HPLC; type: ADME, cell-free; conditions: 100 µM
Serum [11] = experiment: Metabolic stability in Sprague-Dawley rat serum assessed as initial rate of compound cleavage at 0.10 mM after 10 mins by HPLC in presence of 2 mM (phenylmethyl)sulfonyl fluoride; type: ADME, cell-free; conditions: 100 µM
Serum [12] = experiment: Metabolic stability in Sprague-Dawley rat serum assessed as initial rate of compound cleavage at 0.10 mM after 10 mins by HPLC in presence of 2 mM EDTA; type: ADME, cell-free; conditions: 100 µM
Serum [13] = experiment: Metabolic stability in Sprague-Dawley rat serum assessed as initial rate of compound cleavage at 0.10 mM after 10 mins by HPLC in presence of 2 mM p-chloromercuribenzoic acid; type: ADME, cell-free; conditions: 100 µM
Serum [14] = experiment: Metabolic stability in Sprague-Dawley rat serum assessed as initial rate of compound cleavage at 0.10 mM after 10 mins by HPLC in presence of 2 mM bis-(p-nitrophenyl) phosphate; type: ADME, cell-free; conditions: 100 µM
Serum [15] = experiment: Metabolic stability in Sprague-Dawley rat serum assessed as initial rate of compound cleavage at 0.10 mM after 10 mins by HPLC in presence of 2 mM eserine; type: ADME, cell-free; conditions: 100 µM
Serum [16] = experiment: Metabolic stability in Sprague-Dawley rat serum assessed as initial rate of compound cleavage at 0.10 mM after 10 mins by HPLC in presence of 10 uM eserine; type: ADME, cell-free; conditions: 100 µM
Serum [17] = experiment: Metabolic stability in Sprague-Dawley rat serum up to 3 hrs; type: ADME, cell-free

CC(C)C[C@@H]1NC(=O)[C@@H](NC(=O)[C@H](Cc2ccccc2)N(C)C)[C@H](C(C)C)Oc2ccc(cc2)[C@@H](O)CNC1=O [SANJOININE G1]
Activity (Serum [1]): Stable

CO[C@H]1CNC(=O)[C@H](CC(C)C)NC(=O)[C@@H](NC(=O)[C@H](Cc2ccccc2)N(C)C)[C@H](C(C)C)Oc2ccc1cc2 [SANJOININE D]
Activity (Serum [1]): Stable

CC(C)C[C@H]1NC(=O)[C@@H](NC(=O)[C@H](Cc2ccccc2)N(C)C)[C@H](C(C)C)Oc2ccc(cc2)/C=C\NC1=O [SANJOININE AH1]
Activity (Serum [1]): Unstable

CC(C)C[C@@H]1NC(=O)[C@@H](NC(=O)[C@H](Cc2ccccc2)N(C)C)[C@H](C(C)C)Oc2ccc(cc2)/C=C\NC1=O [FRANGUFOLINE]
Stability [2]: Stable
Stability [3]: Stable
Stability (Serum [4]): Unstable
Stability (Serum [5]): Unstable
Stability (Serum [6]): Stable
Stability (Serum [7]): Stable
Stability (Serum [8]): Unstable
Stability (Serum [9]): Unstable
Stability (Serum [1]): Unstable
Stability (Serum [10]): 1.44 pmol/min/mg
Stability (Serum [11]): 1.3 pmol/min/mg
Stability (Serum [12]): 0.376 pmol/min/mg
Stability (Serum [13]): 1.34 pmol/min/mg
Stability (Serum [14]): 0.116 pmol/min/mg
Stability (Serum [15]): 0.352 pmol/min/mg
Stability (Serum [16]): 1.24 pmol/min/mg
Stability (Serum [17]): Stable

CC(C)C[C@@H]1NC(=O)[C@@H](NC(=O)[C@H](Cc2ccccc2)N(C)C)[C@H](C(C)C)Oc2ccc(cc2)CCNC1=O [DIHYDROSANJOININE A]
Activity (Serum [1]): Stable
